Experimental findings from patent US10407409B2, “6-(5-hydroxy-1H-pyrazol-1-yl)nicotinamide inhibitors of PHD” (Takeda Pharmaceutical Company Limited, priority 2013, dated 2019) are described below.

In experiment [1] the target is PHD2 enzyme (residues 181-417) (Homo sapiens (Human), UniProt Q9GZT9). Kind of experiment: Inhibition of PHD enzyme (LC/MS peptide hydroxylation assay). In kind it is biochemical. The conditions noted are these: PHD2 (residues 181-417) 5 nM, 60 min pre-incubation; -log(IC50), IC50 molar. The procedure: Example A Inhibition of PHD Enzyme
The IC50 values for the PHD2 enzyme (residues 181-417) were determined by mixing increasing amounts of inhibitor with a fixed amount of enzyme (5 nM, final concentration) and Biotin labeled peptide (Biotin-Asp-Leu-Glu-Met-Leu-Ala-Pro-Tyr-Ile-Pro-Met-Asp-Asp-Asp-Phe-Gln-Leu, 1 uM final concentration) and 2-Oxyglutarate (2 uM final concentration) in 50 mM HEPES, 50 mM KCl, 0.5 mM TCEP, 2 uM FeCl2, 0.1 mg/ml BSA, at pH 7.3. The reaction was conducted by pre-incubating the enzyme in the presence of inhibitor for 60 min at room temperature. The activity of the free enzyme was measured by adding the peptide, the 2-Oxoglutarate (see above for final concentrations), and Ascorbic Acid (1 mM final concentration). The enzymatic activity was quenched after 60 min by adding an excess of a tight binding inhibitor to the assay mixture. The amount of product released was measured by using a LC/MS system (Agilent HPLC with Applied Biosystems API3000 Mass Spectrometer). Data were analyzed using the classical isotherm equation for the determination of IC50 values and are pIC50, i.e., −log(IC50), where IC50 is molar concentration and are reported as pIC50, i.e., −log(IC50), where IC50 is molar concentration.

Experiment [2] concerns HIF1a protein in H9c2 rat cardiomyocytes. Kind of experiment: Cell-based HIF-alpha stabilization assay (inhibition of PHD in cells). The conditions noted are these: 24 hrs compound incubation, HIF1a protein by ELISA; for EC50: Rattus norvegicus, H9c2, 24 h, read-out: Inhibition of PHD in cells (pEC50) (converted). The procedure:
Example B Inhibition of PHD in Cells
PHD Inhibition is Determined Using (Secondary Assay)
Cell-Based HIF-Alpha Stabilization Assay:
H9c2 rat cardiomyocytes (ATCC) were seeded in 96-well tissue culture microplates and cultured for 24 hours prior to addition of compounds (11 point range of serial dilutions) or dimethylsulfoxide vehicle. After 24 hrs of compound incubation, whole cell extracts were prepared by lysing cells in cell extraction buffer containing protease and phosphatase inhibitors (Meso-Scale Discovery). HIF1a protein content was assessed by ELISA (Meso-Scale Discovery) and expressed as a % relative to the maximum response obtained from the positive control, desferrioxamine (Sigma-Aldrich). Compound EC50s were obtained by curve-fitting using XLfit4 MicroSoft Excel curve-fitting software. Compound EC50pos were obtained using XLfit4 to calculate the compound concentration that results in 50% of the desferrioxamine maximum response.
Background: ELISA stands for enzyme-linked immunosorbent assay.

Counter-ions that a name gives are not always drawn.

PHD2 enzyme (residues 181-417), sequence (Q9GZT9 181-417): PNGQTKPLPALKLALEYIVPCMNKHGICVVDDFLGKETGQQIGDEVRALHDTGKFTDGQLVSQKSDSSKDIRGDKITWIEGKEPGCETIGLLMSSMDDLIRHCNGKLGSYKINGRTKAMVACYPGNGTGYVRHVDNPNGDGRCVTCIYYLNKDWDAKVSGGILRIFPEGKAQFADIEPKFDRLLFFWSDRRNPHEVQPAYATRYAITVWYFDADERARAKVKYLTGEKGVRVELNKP

For `COCCC1(NC(=O)c2ccc(-n3ncc(-c4ccc(C#N)cc4F)c3O)nc2)CC1` [Example 210, 6-(4-(4-cyano-2-fluorophenyl)-5-hydroxy-1H-pyrazol-1-yl)-N-(1-(2-methoxyethyl)cyclopropyl)nicotinamide], in experiment [1], the “PHD Inhibition (pIC50)” value is recorded as 8.3. The same measure, in the same setting: next, `COCCCN(C)C(=O)c1ccc(-n2ncc(-c3ccc(C#N)cc3OC)c2O)nc1` [Example 240, 6-(4-(4-cyano-2-methoxyphenyl)-5-hydroxy-1H-pyrazol-1-yl)-N-(3-methoxypropyl)-N-methylnicotinamide]: 6.63; `CC1CC(CNC(=O)c2ccc(-n3ncc(-c4ccc(C#N)cc4)c3O)nc2)C1` (stereo not shown) [Example 257, 6-(4-(4-cyanophenyl)-5-hydroxy-1H-pyrazol-1-yl)-N-((3-methylcyclobutyl)methyl)nicotinamide]: 7.24. The same measure, in the same setting: next, `CN(C)c1cc(-c2cnn(-c3ccc(C(=O)NCC4CCOCC4)cn3)c2O)ccn1` [Example 212, 6-(4-(2-(dimethylamino)pyridin-4-yl)-5-hydroxy-1H-pyrazol-1-yl)-N-((tetrahydro-2H-pyran-4-yl)methyl)nicotinamide]: 6.21. For `CCN1CCC(NC(=O)c2ccc(-n3ncc(-c4ccnc(OC)c4)c3O)nc2)CC1` [Example 37, N-(1-ethylpiperidin-4-yl)-6-(5-hydroxy-4-(2-methoxypyridin-4-yl)-1H-pyrazol-1-yl)nicotinamide], the “PHD Inhibition (pIC50)” value in experiment [1] is 7.4.

As for `C[C@@H](NC(=O)c1ccc(-n2ncc(-c3ccc(C#N)cc3)c2O)nc1)C1CC1` [Example 88, (R)-6-(4-(4-cyanophenyl)-5-hydroxy-1H-pyrazol-1-yl)-N-(1-cyclopropylethyl)nicotinamide], in experiment [2], the “Inhibition of PHD in cells (pEC50)” value worked out at 5.50. On to `COc1cc(-c2cnn(-c3ccc(C(=O)NC(CO)C4CCOC4)cn3)c2O)ccn1` (stereo not shown) [Example 27, N-(2-hydroxy-1-(tetrahydrofuran-3-yl)ethyl)-6-(5-hydroxy-4-(2-methoxypyridin-4-yl)-1H-pyrazol-1-yl)nicotinamide], for which the “PHD Inhibition (pIC50)” value in experiment [1] is reported as 6.99.

Regarding `Cc1cc(C#N)ccc1-c1cnn(-c2ccc(C(=O)N3CCN(C)C[C@@H]3C)cn2)c1O` [Example 391, (S)-4-(1-(5-(2,4-dimethylpiperazine-1-carbonyl)pyridin-2-yl)-5-hydroxy-1H-pyrazol-4-yl)-3-methylbenzonitrile], the EC50 in experiment [2] was 1.55 µM. As for `N#Cc1ccc(-c2cnn(-c3ccc(C(=O)NCC4CCC4)cn3)c2O)cc1` [Example 256, 6-(4-(4-cyanophenyl)-5-hydroxy-1H-pyrazol-1-yl)-N-(cyclobutylmethyl)nicotinamide], the “PHD Inhibition (pIC50)” value in experiment [1] is reported as 6.72. With `COc1cc(-c2cnn(-c3ccc(C(=O)NCCCN4CCCCC4)cn3)c2O)ccn1` [Example 18, 6-(5-hydroxy-4-(2-methoxypyridin-4-yl)-1H-pyrazol-1-yl)-N-(3-(piperidin-1-yl)propyl)nicotinamide], the EC50 in experiment [2] was 0.933 µM.

As for `COc1cc(-c2cnn(-c3ccc(C(=O)NCCCN4CCCCC4C)cn3)c2O)ccn1` (stereo not shown) [Example 29, 6-(5-hydroxy-4-(2-methoxypyridin-4-yl)-1H-pyrazol-1-yl)-N-(3-(2-methylpiperidin-1-yl)propyl)nicotinamide], in experiment [2], the EC50 is 0.871 µM. The same measure, in the same setting: under `N#Cc1ccc(-c2cnn(-c3ccc(C(=O)NC4CCc5ccc(Cl)cc54)cn3)c2O)cc1` (stereo not shown) [Example 79, N-(6-chloro-2,3-dihydro-1H-inden-1-yl)-6-(4-(4-cyanophenyl)-5-hydroxy-1H-pyrazol-1-yl)nicotinamide] stands 1.32 µM. For `COc1cc(-c2cnn(-c3ccc(C(=O)NCCCn4ccnc4)cn3)c2O)ccn1` [Example 21, N-(3-(1H-imidazol-1-yl)propyl)-6-(5-hydroxy-4-(2-methoxypyridin-4-yl)-1H-pyrazol-1-yl)nicotinamide], the “Inhibition of PHD in cells (pEC50)” value in experiment [2] was 6.46. `CNCCCNC(=O)c1ccc(-n2ncc(-c3ccc(C#N)cc3)c2O)nc1` [Example 272, 6-(4-(4-cyanophenyl)-5-hydroxy-1H-pyrazol-1-yl)-N-(3-(methylamino)propyl)nicotinamide hydrochloride]: the “PHD Inhibition (pIC50)” value in experiment [1] stood at 7.03. The same measure, in the same setting: next, `Cc1cc(C#N)ccc1-c1cnn(-c2ccc(C(=O)N3CCN4CCCC4C3)cn2)c1O` (stereo not shown) [Example 407, 4-(5-hydroxy-1-(5-(octahydropyrrolo[1,2-a]pyrazine-2-carbonyl)pyridin-2-yl)-1H-pyrazol-4-yl)-3-methylbenzonitrile]: 8.23. `COCC1(NC(=O)c2ccc(-n3ncc(-c4ccc(C#N)cc4C)c3O)nc2)CC1` [Example 118A, 6-(4-(4-cyano-2-methylphenyl)-5-hydroxy-1H-pyrazol-1-yl)-N-(1-(methoxymethyl)cyclopropyl)nicotinamide]: the EC50 in experiment [2] was 0.0794 µM. The same measure, in the same setting: under `COCCNC(=O)c1cnc(-n2ncc(-c3ccc(C#N)cc3)c2O)cc1C` [Example 276, 6-(4-(4-cyanophenyl)-5-hydroxy-1H-pyrazol-1-yl)-N-(2-methoxyethyl)-4-methylnicotinamide] stands 3.63 µM; under `CCN1CCC(CN(C)C(=O)c2ccc(-n3ncc(-c4ccc(C#N)cc4)c3O)nc2)C1` (stereo not shown) [Example 366, 6-(4-(4-cyanophenyl)-5-hydroxy-1H-pyrazol-1-yl)-N-((1-ethylpyrrolidin-3-yl)methyl)-N-methylnicotinamide], 3.8 µM. On to `N#Cc1ccc(-c2cnn(-c3ccc(C(=O)N[C@H]4CCNC4)cn3)c2O)cc1` [Example 73, (S)-6-(4-(4-cyanophenyl)-5-hydroxy-1H-pyrazol-1-yl)-N-(pyrrolidin-3-yl)nicotinamide], for which the “PHD Inhibition (pIC50)” value in experiment [1] came to 7.2.

Consider `CC1CCCCN1CCCNC(=O)c1ccc(-n2ncc(-c3ccc(C#N)cc3)c2O)nc1` (stereo not shown) [Example 90, 6-(4-(4-cyanophenyl)-5-hydroxy-1H-pyrazol-1-yl)-N-(3-(2-methylpiperidin-1-yl)propyl)nicotinamide], for which, in experiment [1], the “PHD Inhibition (pIC50)” value is recorded as 6.95. The same measure, in the same setting: under `Cc1cc(-c2cnn(-c3ccc(C(=O)NCC4CCOCC4)cn3)c2O)cc(C)n1` [Example 224, 6-(4-(2,6-dimethylpyridin-4-yl)-5-hydroxy-1H-pyrazol-1-yl)-N-((tetrahydro-2H-pyran-4-yl)methyl)nicotinamide] stands 5.83. The same measure, in the same setting: next, `CN1CCC(CNC(=O)c2ccc(-n3ncc(-c4ccc(C#N)cc4)c3O)nc2)C1` (stereo not shown) [Example 92, 6-(4-(4-cyanophenyl)-5-hydroxy-1H-pyrazol-1-yl)-N-((1-methylpyrrolidin-3-yl)methyl)nicotinamide]: 6.87. On to `CCCN1CCN(C(=O)c2ccc(-n3ncc(-c4ccc(C#N)cc4C)c3O)nc2)C[C@@H]1C` [Example 374, (S)-4-(5-hydroxy-1-(5-(3-methyl-4-propylpiperazine-1-carbonyl)pyridin-2-yl)-1H-pyrazol-4-yl)-3-methylbenzonitrile], for which, in experiment [2], the EC50 is 0.1 µM. The same measure, in the same setting: under `COc1ccc2c(c1)C(NC(=O)c1ccc(-n3ncc(-c4ccc(C#N)cc4)c3O)nc1)CC2` (stereo not shown) [Example 83, 6-(4-(4-cyanophenyl)-5-hydroxy-1H-pyrazol-1-yl)-N-(6-methoxy-2,3-dihydro-1H-inden-1-yl)nicotinamide] stands 1.78 µM.

With `COc1cc(-c2cnn(-c3ccc(C(=O)NCCCN(C)C)cn3)c2O)ccn1` [Example 44, N-(3-(dimethylamino)propyl)-6-(5-hydroxy-4-(2-methoxypyridin-4-yl)-1H-pyrazol-1-yl)nicotinamide], the “PHD Inhibition (pIC50)” value in experiment [1] is listed as 7.3. Same read-out and setting: under `O=C(NCC1CCOCC1)c1ccc(-n2ncc(-c3ccncc3)c2O)nc1` [Example 226, 6-(5-hydroxy-4-(pyridin-4-yl)-1H-pyrazol-1-yl)-N-((tetrahydro-2H-pyran-4-yl)methyl)nicotinamide] stands 6.6; under `CCCN1CCCN(C(=O)c2ccc(-n3ncc(-c4ccc(C#N)cc4C)c3O)nc2)CC1` [Example 424, 4-(5-hydroxy-1-(5-(4-propyl-1,4-diazepane-1-carbonyl)pyridin-2-yl)-1H-pyrazol-4-yl)-3-methylbenzonitrile], 7.70; under `COc1cc(-c2cnn(-c3ccc(C(=O)NCCCCO)cn3)c2O)ccn1` [Example 28, 6-(5-hydroxy-4-(2-methoxypyridin-4-yl)-1H-pyrazol-1-yl)-N-(4-hydroxybutyl)nicotinamide], 7.01.
